Laboratory results reported in patent publication US9078871B2, “Estrogen receptor modulators and uses thereof” (SERAGON PHARMACEUTICALS, INC., priority 2010, dated 2015).

What was measured:
MCF-7 tumors = assay: Xenograft Assay (MCF-7 Derivative), tamoxifen treatment of MCF-7 tumors; type: in vivo; conditions: female nu/nu mice with 17-β estradiol pellets bearing MCF-7 tumors, oral gavage
Experimental: Female nu/nu mice (with supplemental 17-P3 Estradiol pellets; 0.72 mg; 60 day slow release) bearing MCF-7 tumors (mean tumor volume 200 mm^3) were treated with Tamoxifen (citrate) by oral gavage. Tumor volume (length×width^2/2) and body weight were monitored twice weekly. […] At 120 days of treatment, tamoxifen dose was increased. Rapidly growing tumors were deemed tamoxifen resistant and selected for in vivo passage into new host animals. Tumor Fragments (˜100 mm^3/animal) from the tamoxifen resistant tumors were subcutaneously implanted into the right flank of female nu/nu mice (with 17-P3 Estradiol pellets (0.72 mg; 60 day slow release)). Passaged tumors were maintained under constant Tamoxifen selection and Tumor volume (length×width^2/2) monitored weekly. When tumor volume reached ˜150-250 mm^3, animals were randomized into treatment groups (mean tumor volume 200 mm^3) and tamoxifen treatment was terminated (except for a tamoxifen control arm). Animals were treated with Vehicle or test compound daily for 4 weeks. Tumor volume and body weight were monitored twice weekly for the duration of the study. At the conclusion of the treatment period; plasma and tumor samples were taken for pharmacokinetic and pharmacodynamic analyses, respectively.

ER-α [1] = biological target: T1, ER-α (Homo sapiens, UniProt P03372); assay: ER-α in Cell Western Assay (SP1); type: cell-based; conditions: MCF-7 cells, SP1 rabbit monoclonal Ab, 4 or 24 hr post compound addition, read-out: ER In-Cell Western Assay (SP1); for Emax: MCF7, Max Response; for DC50: IC50
T1 construct: endogenous in cells; host or cells: MCF-7
T1 sequence (P03372 1-595): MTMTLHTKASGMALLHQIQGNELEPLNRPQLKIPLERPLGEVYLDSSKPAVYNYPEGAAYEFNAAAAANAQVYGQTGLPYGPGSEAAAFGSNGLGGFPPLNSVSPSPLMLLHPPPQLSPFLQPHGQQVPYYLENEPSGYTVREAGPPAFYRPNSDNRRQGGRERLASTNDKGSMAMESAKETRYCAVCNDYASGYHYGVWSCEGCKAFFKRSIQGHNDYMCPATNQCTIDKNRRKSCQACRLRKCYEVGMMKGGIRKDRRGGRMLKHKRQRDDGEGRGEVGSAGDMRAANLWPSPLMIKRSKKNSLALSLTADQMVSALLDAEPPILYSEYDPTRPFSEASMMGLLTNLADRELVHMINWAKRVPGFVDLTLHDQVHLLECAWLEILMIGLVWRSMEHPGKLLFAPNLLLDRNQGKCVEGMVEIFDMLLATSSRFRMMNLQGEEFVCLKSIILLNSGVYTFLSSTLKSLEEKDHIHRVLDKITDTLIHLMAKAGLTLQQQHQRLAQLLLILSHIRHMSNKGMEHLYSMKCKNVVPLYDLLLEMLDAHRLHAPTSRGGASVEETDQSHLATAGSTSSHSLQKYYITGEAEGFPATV
Method in brief: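 MCF-7 cells in charcoal-stripped FBS medium treated with 11-point semilog dilutions (0.3–0.000003 μM final) for 4 or 24 hr, then fixed and immunostained with SP1 anti-ER antibody. ER signal (800 nm) normalized to DRAQ5 DNA signal (700 nm) and expressed as % of untreated cells.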

MCF-7 cells = assay: Breast Cancer Cell Viability Assay (MCF7 Viability Assay); type: cell-based; conditions: 5 days' compound exposure, CellTiter-Glo; for IC50: Homo sapiens, MCF7, 120 h
Method in brief: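 MCF-7 cells, 320 per well in RPMI with 10% FBS and 20 mM HEPES, adhered overnight, then exposed 5 days to an eleven-point semilog dilution (final 0.3–0.000003 μM). CellTiter-Glo luminescence; % viability relative to untreated cells after subtracting cell-free background.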

ER-α [2] = biological target: T1, ER-α; assay: ER-α In Cell Western Assay (ER1D5); type: cell-based; conditions: MCF-7 cells, ER1D5 antibody, 4 or 24 hr post compound addition, read-out: ER In-Cell Western Assay (ER1D5); for Emax: MCF7, Max Response; for DC50: IC50
Method in brief: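 MCF-7 cells in RPMI with 10% charcoal-stripped FBS treated with 11-point semilog series (0.3–0.000003 μM final) for 4 or 24 h. Fixed cells stained with ER1D5 plus IRDye 800CW secondary and DRAQ5; ER level = 800/700 nm intensity ratio as % of untreated cells.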

| SMILES | anti-tumor response (tumor volume) (MCF-7 tumors) | time at which evident tumor growth was first observed (MCF-7 tumors) | Emax (ER-α [1]) [%] | DC50 (ER-α [1]) [nM] | MCF7 Viability Assay Max Response (MCF-7 cells) | IC50 (MCF-7 cells) [nM] | Emax (ER-α [2]) [%] | DC50 (ER-α [2]) [nM] |
| --- | --- | --- | --- | --- | --- | --- | --- | --- |
| CC/C(=C(\c1ccccc1)c1ccc(OCCN(C)C)cc1)c1ccccc1 [Tamoxifen, tamoxifen] | tumor volume remained static | approximately 100 days of treatment | – | – | – | – | – | – |
| CC1=C(c2cccc(O)c2)C(c2ccc(OC[C@@H](C)N3CC[C@H](C)C3)cc2)Oc2ccc(O)cc21 (stereo partly drawn) [Example 13, 3-(3-Hydroxyphenyl)-4-methyl-2-(4-((R)-2-((S)-3-methylpyrrolidin-1-yl)propoxy)phenyl)-2H-chromen-6-ol] | – | – | < 60 | ≤ 1 | ++ (++ = a single % value ≧50%) | ≤ 1 | < 40 | ≤ 1 |
| CC1=C(c2cccc(O)c2)C(c2ccc(OCCN3CCCC3)cc2)Oc2ccc(O)cc21 (centres unmarked) [Example 36, 3-(3-Hydroxyphenyl)-4-methyl-2-(4-(2-(pyrrolidin-1-yl)ethoxy)phenyl)-2H-chromen-6-ol] | – | – | 60 to 85 | ≤ 1 | ++ (++ = a single % value ≧50%) | ≤ 1 | 40 to 65 | ≤ 1 |
| CC1=C(c2cccc(O)c2)C(c2ccc(OC[C@H](C)N3CC[C@@H](C)C3)cc2)Oc2cc(O)ccc21 (stereo partly drawn) [Example 27, 3-(3-Hydroxyphenyl)-4-methyl-2-(4-((S)-2-((R)-3-methylpyrrolidin-1-yl)propoxy)phenyl)-2H-chromen-7-ol] | – | – | ≥ 85 | ≤ 1 | ++ (++ = a single % value ≧50%) | ≤ 1 | ≥ 65 | ≤ 1 |
